Experimental data taken from patent US10555987B2, “GHRH agonists for the treatment of ischemic disorders” (UNIVERSITY OF MIAMI, priority 2012, dated 2020).
Non-standard residues stand in square brackets, D forms with d. Residues, ends and D or L forms follow the SMILES beside them. ξ: configuration not given here. *: point of attachment. Phe(F5) = N[C@@H](Cc1c(F)c(F)c(F)c(F)c1F)C(=O)O; Desaminotyrosyl = O=C(CCc1ccc(O)cc1)*; NMeY = CN[C@@H](Cc1ccc(O)cc1)C(=O)O; Agmatine = N=C(N)NCCCCN*; NMeA = CN[C@@H](C)C(=O)O; Nle = CCCC[C@H](N)C(=O)O; Orn = NCCC[C@H](N)C(=O)O; Abu = CC[C@H](N)C(=O)O; Ava = NCCCCC(=O)O; GABA = NCCCC(=O)O; ξA = CC(N)C(=O)O

What was measured:
GH release = test: In vivo endocrine activity, GH release after subcutaneous administration (Table 9); details: rat, subcutaneous (s.c.) injection
Procedure: Subcutaneous Administration. Adult male rats were used and anesthetized with pentobarbital (6 mg/100 g, b.w.), by i.p. injection. […] Blood samples were taken from the jugular vein 5, 15 and/or 30 minutes after the injection. The blood samples were centrifuged, plasma was removed and the GH level was measured byELISA. The results are summarized in terms of potency in Table 9.

GHRH receptor = molecular target: T1, GHRH receptor (Homo sapiens, UniProt Q02643); test: GHRH receptor binding, competition with 125I-labeled JV-1-42, human pituitary membrane homogenates (Table 7); set-up: Normal human pituitaries were purchased from the National Hormone and Peptide Program; tissue National Hormone and Peptide Program (A.F. Parlow, Harbor-UCLA Medical Center, Torrance, Calif.); host or cells: normal human pituitary, membrane fraction; details: for Relative affinity (Binding potency) vs JI-38: JI-38 = 1, Table 7
T1 sequence (Q02643 23-423): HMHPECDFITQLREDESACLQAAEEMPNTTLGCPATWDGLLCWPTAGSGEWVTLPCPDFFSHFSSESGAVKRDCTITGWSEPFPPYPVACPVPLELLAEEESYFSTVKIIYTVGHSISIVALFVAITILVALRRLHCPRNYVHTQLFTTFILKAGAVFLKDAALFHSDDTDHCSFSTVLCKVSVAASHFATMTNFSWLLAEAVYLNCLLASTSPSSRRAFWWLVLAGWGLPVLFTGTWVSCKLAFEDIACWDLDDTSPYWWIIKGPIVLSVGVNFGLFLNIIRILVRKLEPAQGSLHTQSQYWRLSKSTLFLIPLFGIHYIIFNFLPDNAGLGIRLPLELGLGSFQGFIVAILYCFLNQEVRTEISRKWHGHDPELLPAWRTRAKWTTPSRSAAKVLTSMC
Source text: Normal human pituitaries were purchased from the National Hormone and Peptide Program (A.F. Parlow, Los Angeles, County Harbor-UCLA Medical Center, Torrance, Calif.).

| Relative affinity (Binding potency) vs JI-38 (GHRH receptor) | Molecule | GH releasing potency relative to JI-38 (=1) (GH release; 15 min after) | GH releasing potency relative to JI-38 (=1) (GH release; 30 min after) | GH releasing potency relative to JI-38 (=1) (GH release; 5 min after) | IC50 (GHRH receptor; 125I-JV-1-42, human pituitary membranes, Table 7) [nM] |
| --- | --- | --- | --- | --- | --- |
|  | [N—Me-Tyr^1, D-Ala^2, Ala^8, Orn^12, Abu^15, Orn^21, Nle^27, Asp^28]hGHRH (1-29)NH—CH3 [Peptide P-27412] | 1.10 | 1.29 |  |  |
| 1.14 | CCCC[C@H](NC(=O)[C@@H](NC(=O)[C@H](CC(=O)O)NC(=O)[C@H](CCC(N)=O)NC(=O)[C@H](CC(C)C)NC(=O)[C@H](CC(C)C)NC(=O)[C@H](CCCN)NC(=O)[C@H](CCCNC(=N)N)NC(=O)[C@H](C)NC(=O)[C@H](CO)NC(=O)[C@H](CC(C)C)NC(=O)[C@H](CCC(N)=O)NC(=O)[C@H](CC)NC(=O)[C@H](CC(C)C)NC(=O)[C@@H](NC(=O)[C@H](CCCN)NC(=O)[C@H](CCCNC(=N)N)NC(=O)[C@H](Cc1ccc(O)cc1)NC(=O)[C@H](CO)NC(=O)[C@H](CCC(N)=O)NC(=O)[C@@H](NC(=O)[C@H](Cc1ccccc1)NC(=O)[C@@H](NC(=O)[C@H](C)NC(=O)[C@H](CC(=O)O)NC(=O)C(C)NC(=O)[C@H](Cc1ccc(O)cc1)NC)[C@@H](C)CC)[C@@H](C)O)C(C)C)[C@@H](C)CC)C(=O)N[C@@H](CC(=O)O)C(=O)N[C@@H](CCCNC(=N)N)C(=O)NCCCCC(N)=O (stereo partly shown) [Peptide P-22325, [N—Me-Tyr^1, Gln^8, Orn^12, Abu^15, Orn^21, Nle^27, Asp^28, Apa^30]hGHRH (1-30)NH2] (H-[NMeY][ξA]DAIFTQSYR[Orn]VL[Abu]QLSAR[Orn]LLQDI[Nle]DR[Ava]-NH2) | 0.68 | 1.03 | 0.33 |  |
| 3.67 | CCCC[C@H](NC(=O)[C@@H](NC(=O)[C@H](CC(=O)O)NC(=O)[C@H](CCC(N)=O)NC(=O)[C@H](CC(C)C)NC(=O)[C@H](CC(C)C)NC(=O)[C@H](CCCN)NC(=O)[C@H](CCCNC(=N)N)NC(=O)[C@H](C)NC(=O)[C@H](CO)NC(=O)[C@H](CC(C)C)NC(=O)[C@H](CCC(N)=O)NC(=O)[C@H](CC)NC(=O)[C@H](CC(C)C)NC(=O)[C@@H](NC(=O)[C@H](CCCN)NC(=O)[C@H](CCCNC(=N)N)NC(=O)[C@H](Cc1ccc(O)cc1)NC(=O)[C@H](CO)NC(=O)[C@H](CC(N)=O)NC(=O)[C@@H](NC(=O)[C@H](Cc1ccccc1)NC(=O)[C@@H](NC(=O)[C@H](C)NC(=O)[C@H](CC(=O)O)NC(=O)[C@H](CC)NC(=O)[C@H](Cc1ccc(O)cc1)NC)[C@@H](C)CC)[C@@H](C)O)C(C)C)[C@@H](C)CC)C(=O)N[C@@H](CO)C(=O)N[C@@H](CCCNC(=N)N)C(=O)NCCCC(N)=O [Peptide P-25503, [N—Me-Tyr^1, Abu^2, Orn^12, Abu^15, Orn^21, Nle^27, Gab^30]hGHRH(1-30)NH2] (H-[NMeY][Abu]DAIFTNSYR[Orn]VL[Abu]QLSAR[Orn]LLQDI[Nle]SR[GABA]-NH2) | 0.64 | 0.63 | 0.55 |  |
| 1.30 | CCCC[C@H](NC(=O)[C@@H](NC(=O)[C@H](CC(=O)O)NC(=O)[C@H](CCC(N)=O)NC(=O)[C@H](CC(C)C)NC(=O)[C@H](CC(C)C)NC(=O)[C@H](CCCN)NC(=O)[C@H](CCCNC(=N)N)NC(=O)[C@H](C)NC(=O)[C@H](CO)NC(=O)[C@H](CC(C)C)NC(=O)[C@H](CCC(N)=O)NC(=O)[C@H](CC)NC(=O)[C@H](CC(C)C)NC(=O)[C@@H](NC(=O)[C@H](CCCN)NC(=O)[C@H](CCCNC(=N)N)NC(=O)[C@H](Cc1ccc(O)cc1)NC(=O)[C@H](CO)NC(=O)[C@H](CC(N)=O)NC(=O)[C@@H](NC(=O)[C@H](Cc1ccccc1)NC(=O)[C@@H](NC(=O)[C@H](C)NC(=O)[C@H](CC(=O)O)NC(=O)[C@@H](C)NC(=O)CCc1ccc(O)cc1)[C@@H](C)CC)[C@@H](C)O)C(C)C)[C@@H](C)CC)C(=O)N[C@@H](CC(=O)O)C(=O)N[C@@H](CCCNC(=N)N)C(=O)NC [Peptide P-27400, [Dat^1, D-Ala^2, Orn^12, Abu^15, Orn^21, Nle^27, Asp^28]hGHRH(1-29)NH—CH3] (Desaminotyrosyl-[dA]DAIFTNSYR[Orn]VL[Abu]QLSAR[Orn]LLQDI[Nle]DR-NHMe) | 0.47 | 0.38 |  |  |
|  | [N—Me-D-Tyr^1, D-Ala^2, Gln^8, Orn^12, Abu^15, Orn^21, Nle^27, Asp^28]hGHRH(1-29)NH—CH3 [Peptide P-27425] | 0.49 | 0.31 |  |  |
|  | [N—Me-Tyr^1, D-Ala^2, Gln^8, Orn^12, Abu^15, Orn^21, Nle^27, Asp^28, Gln-Gab^30] hGHRH](1-30)NH2 [Peptide P-29701] | 1.30 | 1.55 | 0.92 |  |
|  | [N—Me-Tyr^1, Gln^8, Orn^12, Abu^15, Orn^21, Nle^27, Agm^29]hGHRH(1-29)NH2 [Peptide P-20373] | 0.23 | 0.88 |  |  |
|  | [N—Me-Tyr^1, D-Ala^2, Thr^8, Orn^12, Abu^15, Orn^21, Nle^27, Asp^28, Agm^29] hGHRH (1-29)NH2 [Peptide P-20360] | 0.24 | 0.39 |  |  |

| Molecule | Relative affinity (Binding potency) vs JI-38 (GHRH receptor) | GH releasing potency relative to JI-38 (=1) (GH release; 15 min after) | GH releasing potency relative to JI-38 (=1) (GH release; 30 min after) | GH releasing potency relative to JI-38 (=1) (GH release; 5 min after) | IC50 (GHRH receptor; 125I-JV-1-42, human pituitary membranes, Table 7) [nM] |
| --- | --- | --- | --- | --- | --- |
| CCCC[C@H](NC(=O)[C@@H](NC(=O)[C@H](CC(=O)O)NC(=O)[C@H](CCC(N)=O)NC(=O)[C@H](CC(C)C)NC(=O)[C@H](CC(C)C)NC(=O)[C@H](CCCN)NC(=O)[C@H](CCCNC(=N)N)NC(=O)[C@H](C)NC(=O)[C@H](CO)NC(=O)[C@H](CC(C)C)NC(=O)[C@H](CCC(N)=O)NC(=O)[C@H](CC)NC(=O)[C@H](CC(C)C)NC(=O)[C@@H](NC(=O)[C@H](CCCN)NC(=O)[C@H](CCCNC(=N)N)NC(=O)[C@H](Cc1ccc(O)cc1)NC(=O)[C@H](CO)NC(=O)[C@H](C)N(C)C(=O)[C@@H](NC(=O)[C@H](Cc1ccccc1)NC(=O)[C@@H](NC(=O)[C@H](C)NC(=O)[C@H](CC(=O)O)NC(=O)[C@@H](C)NC(=O)CCc1ccc(O)cc1)[C@@H](C)CC)[C@@H](C)O)C(C)C)[C@@H](C)CC)C(=O)N[C@@H](CC(=O)O)C(=O)NCCCCNC(=N)N [Peptide P-20357, [Dat^1, D-Ala^2, N—Me-Ala^8, Orn^12, Abu^15, Orn^21, Nle^27, Asp^28, Agm^29]hGHRH (1-29)NH2] (Desaminotyrosyl-[dA]DAIFT[NMeA]SYR[Orn]VL[Abu]QLSAR[Orn]LLQDI[Nle]D-Agmatine) | 5.06 | 1.07 | 1.41 | 0.63 | 0.86 |
| CCCC[C@H](NC(=O)[C@@H](NC(=O)[C@H](CC(=O)O)NC(=O)[C@H](CCC(N)=O)NC(=O)[C@H](CC(C)C)NC(=O)[C@H](CC(C)C)NC(=O)[C@H](CCCN)NC(=O)[C@H](CCCNC(=N)N)NC(=O)[C@H](C)NC(=O)[C@H](CO)NC(=O)[C@H](CC(C)C)NC(=O)[C@H](CCC(N)=O)NC(=O)[C@H](CC)NC(=O)[C@H](CC(C)C)NC(=O)[C@@H](NC(=O)[C@H](CCCN)NC(=O)[C@H](CCCNC(=N)N)NC(=O)[C@H](Cc1ccc(O)cc1)NC(=O)[C@H](CO)NC(=O)[C@H](CC(N)=O)NC(=O)[C@@H](NC(=O)[C@H](Cc1c(F)c(F)c(F)c(F)c1F)NC(=O)[C@@H](NC(=O)[C@H](C)NC(=O)[C@H](CC(=O)O)NC(=O)[C@@H](C)NC(=O)[C@H](Cc1ccc(O)cc1)NC)[C@@H](C)CC)[C@@H](C)O)C(C)C)[C@@H](C)CC)C(=O)N[C@@H](CC(=O)O)C(=O)NCCCCNC(=N)N [Peptide P-20359, [N—Me-Tyr^1, D-Ala^2, Fpa5^6, Orn^12, Abu^15, Orn^21, Nle^27, Asp^28, Agm^29]hGHRH (1-29)NH2] (H-[NMeY][dA]DAI[Phe(F5)]TNSYR[Orn]VL[Abu]QLSAR[Orn]LLQDI[Nle]D-Agmatine) | 1.43 |  |  |  |  |
